The values below come from patent US10266544B2, “Aryl substituted aminomethyl spectinomycin analogs as antibacterial agents” (ST. JUDE CHILDREN'S RESEARCH HOSPITAL, INC., priority 2013, dated 2019).

The test system of test [1] is S. pneumoniae. Briefly: Resistance frequency determination and cross resistance of spontaneous mutants. It is filed as cell-based, Streptococcus pneumoniae. Conditions: cross resistance testing of 2 mutants.
The test system of test [2] is Yersinia pestis. Briefly: microbe, parasite or virus in culture. It is filed as cell-based. The following applies: read-out: MIC Y.p.
Test [3] has as its system Bacillus subtilis (ATCC 23857). Briefly: MIC determination, microbroth dilution. Conditions: ATCC23857; Bacillus subtilis (ATCC 23857); read-out: MIC B.s. It is filed as cell-based.
Test [4] relates to Neisseria gonorrhoeae (ATCC 49226). Briefly: Agar MIC determination (Alamar Blue). Conditions: ATCC49226, agar MIC, read-out: MIC N.g. It is filed as cell-based.
Test [5] relates to Listeria monocytogenes. Put plainly: MIC determination (Table 6). It is filed as cell-based.
In test [6] the test system is M. tuberculosis clinical isolates. Put plainly: microbe, parasite or virus in culture. The following applies: Mycobacterium tuberculosis, H37RV, read-out: MIC H37Rv. It is filed as cell-based.
Test [7] has as its system Streptococcus pneumoniae (R6). Put plainly: MIC determination, microbroth dilution. It is filed as cell-based.
For test [8], the system named is Bacillus anthracis, Sterne 34F2. Put plainly: microbe, parasite or virus in culture. It is filed as cell-based. The following applies: STERNE34F2, read-out: MIC B.a.
In test [9] the test system is Moraxella catarrhalis. Put plainly: MIC determination (Table 6). It is filed as cell-based.
The subject of test [10] is Klebsiella pneumoniae (ATCC 33495). Briefly: MIC determination, microbroth dilution. It is filed as cell-based. Conditions: ATCC33495.
The test system of test [11] is Staphylococcus aureus (ATCC 29213). Put plainly: MIC determination, microbroth dilution. It is filed as cell-based. The following applies: ATCC29213; Staphylococcus aureus (ATCC 29213); read-out: MIC S.a.
The subject of test [12] is Burkholderia cepacia (ATCC 25416). Briefly: MIC determination, microbroth dilution. It is filed as cell-based. Conditions: Burkholderia cepacia.
The subject of test [13] is Stenotrophomonas maltophilia (ATCC 13637). Put plainly: MIC determination, microbroth dilution. It is filed as cell-based. Conditions: ATCC13637; Stenotrophomonas maltophilia (ATCC 13637); read-out: MIC S.m.
Test [14] concerns E. coli K12 ΔtolC. Briefly: microbe, parasite or virus in culture. The following applies: Escherichia coli, read-out: MIC E.c. Δtolc. It is filed as cell-based.
Test [15] deals with Haemophilus influenza (ATCC 49247). Put plainly: microbe, parasite or virus in culture. It is filed as cell-based. The following applies: ATCC49247; Haemophilus influenza; 4 μg per disc; range of at least two experiments; read-out: Zone of inhibition H.i.
In test [16] the test system is Streptococcus pyogenes (ATCC 700294). Briefly: MIC determination, microbroth dilution. It is filed as cell-based. The following applies: ATCC700294; Streptococcus pyogenes (ATCC 700294); read-out: MIC S. py.
Test [17] deals with Proteus vulgaris (ATCC 33420). Briefly: MIC determination, microbroth dilution. It is filed as cell-based. The following applies: ATCC33420.
For test [18], the system named is Escherichia coli (ATCC 700926). Briefly: MIC determination, microbroth dilution. It is filed as cell-based. Conditions: ATCC700926; Escherichia coli (ATCC 700926); read-out: MIC E.c.
The subject of test [19] is live vaccine strain (LVS) of Francisella tularensis. Briefly: microbe, parasite or virus in culture. It is filed as cell-based. Conditions: Francisella tularensis, read-out: MIC F.t.
Test [20] concerns Neisseria gonorrhoeae (ATCC 49226). Put plainly: Disc diffusion assay. It is filed as cell-based. Conditions: ATCC49226, 4 μg per disc, read-out: Zone of inhibition N.g.
Test [21] concerns Bacillus anthracis. Briefly: microbe, parasite or virus in culture. It is filed as cell-based. Conditions: read-out: MIC B.a.
Test [22] has as its system acinetobacter baumannii (ATCC 19606). Put plainly: MIC determination, microbroth dilution. It is filed as cell-based. The following applies: ATCC19606.
Test [23] deals with Enterococcus faecalis (ATCC 33186). Put plainly: MIC determination, microbroth dilution. It is filed as cell-based. Conditions: Enterococcus faecalis, ATCC33186, read-out: MIC E.f.
Test [24] has as its system Pseudomonas aeruginosa (PA01). Put plainly: MIC determination, microbroth dilution. It is filed as cell-based.
For test [25], the system named is Streptococcus pneumoniae clinical isolates representing several serotypes. Briefly: MIC determination, Streptococcus pneumoniae panel of clinical isolates (Table 7). It is filed as cell-based. The following applies: Streptococcus pneumoniae.
For test [26], the system named is Legionella pneumophila (ATCC 33153). Put plainly: microbe, parasite or virus in culture. It is filed as cell-based. The following applies: ATCC33153, 72 h, read-out: Zone of inhibition L.p.
Test [27] deals with Neisseria meningitides (ATCC 13077). Put plainly: Disc diffusion assay. It is filed as cell-based. The following applies: ATCC13077, 4 μg per disc, read-out: Zone of inhibition N.m.
The test system of test [28] is MRSA, Staphylococcus aureus (NRS70). Put plainly: MIC determination, microbroth dilution. It is filed as cell-based. The following applies: Staphylococcus aureus, read-out: MIC MRSA.
Test [29] relates to Proteus mirabilis (ATCC 25933). Put plainly: MIC determination, microbroth dilution. It is filed as cell-based. The following applies: ATCC25933.
In test [30] the test system is S. pneumoniae D39x. Briefly: Mouse challenge, mouse model of lung infection. Conditions: 72 hours post challenge. It is filed as in vivo. Here is the method: Mice were treated with a 5 mg/kg dose b.i.d. of spectinomycin (indicated as “SPC” in the figure) or compound 2 (the compound number refers to the compound number and associated structure shown in Table 1), or vehicle. (Panel B) The bacterial burden of mice at 18 hours post-challenge with S. pneumoniae D39x. (Panel C) Representative bioluminescent images of mice at 72 hours post challenge.
All experimental animal protocols were approved by the St. Jude Children's Research Hospital Institutional Animal Care and Use Committee. Seven week old, female BalbC/J mice (Jackson Labs, Bar Harbor, Me.) we utilized in these studies. All mice were maintained in BSL2 facilities and all experiments were done under inhaled isoflurane (2.5%). Bacteria (strain D39x) were introduced by intranasal administration of 2×10^7 CFU in 25 μL PBS. Mice received no treatment, plasmalyte A (vehicle control), ampicillin (100 mg/kg), spectinomycin (50, 25, 5 mg/kg) or the respective compounds (50, 25, 5 mg/kg) at dosages indicated. Antibiotics were administered in a volume of 100 μL by subcutaneous […] starting at 18 hours post challenge, a time point when the mice have developed pneumonia and bacteria have translocated into the bloodstream. Mice were subsequently dosed every 12 hours until 96 hours post challenge. Mice were monitored daily for signs of infection and weight loss. Differences in time to death were compared via Kaplan-Meier survival estimates. Bacterial density in blood was quantified at 24, 48, 72, and 96 hours post infection via blood collection, serial dilution, and plating. Groups were then compared by Mann-Whitney to determine statistical significance. At 8 days following challenge, surviving mice were euthanized and bacterial loads in lungs determined by homogenization followed by serial dilution and plating. In all instances, surviving mice had completely cleared bacteria from both the lungs and the bloodstream by this time point.
Compound 2 was tested for anti-pneumococcal activity in mice as described above. […]

Structures can show the parent of a compound that is named as a salt. Where two headings read alike, the source gives them in different places.

Take `CC(=O)NC[C@H]1CN(c2ccc(N3CCOCC3)c(F)c2)C(=O)O1` [linezolid]: the “susceptibility of mutants resistant to 2” value in [1] is “susceptible”.
`CC[C@H]1OC(=O)[C@H](C)[C@@H](O[C@H]2C[C@@](C)(OC)[C@@H](O)[C@H](C)O2)[C@H](C)[C@@H](O[C@@H]2O[C@H](C)C[C@H](N(C)C)[C@H]2O)[C@](C)(O)C[C@@H](C)C(=O)[C@H](C)[C@@H](O)[C@]1(C)O` [erythromycin]: in [1], the “susceptibility of mutants resistant to 2” value is reported as “susceptible”.
On the same count and under the same terms, in the case of `C[C@@H](O)[C@H]1C(=O)N2C(C(=O)O)=C(S[C@@H]3CN[C@H](C(=O)N(C)C)C3)[C@H](C)[C@H]12` [meropenem] it was “susceptible”.
Consider `NCC[C@H](O)C(=O)N[C@@H]1C[C@H](N)[C@@H](O[C@H]2O[C@H](CN)[C@@H](O)[C@H](O)[C@H]2O)[C@H](O)[C@H]1O[C@H]1O[C@H](CO)[C@@H](O)[C@H](N)[C@H]1O` [amikacin], for which the “susceptibility of mutants resistant to 2” value in test [1] is recorded as “susceptible”.
Same read-out and setting: in the case of `CC1(C)S[C@@H]2[C@H](NC(=O)[C@H](N)c3ccccc3)C(=O)N2[C@H]1C(=O)O` [ampicillin] it was “susceptible”.
For `CN[C@H](CC(C)C)C(=O)N[C@H]1C(=O)N[C@@H](CC(N)=O)C(=O)N[C@H]2C(=O)N[C@H]3C(=O)N[C@H](C(=O)N[C@H](C(=O)O)c4cc(O)cc(O)c4-c4cc3ccc4O)[C@H](O)c3ccc(c(Cl)c3)Oc3cc2cc(c3O[C@@H]2O[C@H](CO)[C@@H](O)[C@H](O)[C@H]2O[C@H]2C[C@](C)(N)[C@H](O)[C@H](C)O2)Oc2ccc(cc2Cl)[C@H]1O` [vancomycin], the “susceptibility of mutants resistant to 2” value in [1] is reported as “susceptible”.
Turning to `CCc1ccc(CNC[C@]2(O)C[C@@H](C)O[C@H]3O[C@@H]4[C@@H](O)[C@H](NC)[C@H](O)[C@H](NC)[C@H]4O[C@]32O)cc1` [compound 3, 3′-(R)-3′-[(4-ethyl)benzylaminomethyl)]dihydrospectinomycin Trihydrochloride], the MIC in [2] is above 200 µg/mL; in test [3], 3.1 to 6.3 µg/mL; in test [4], 12.5 µg/mL; in test [5] it was 6.3 µg/mL; in test [6], 25 µg/mL; in [7] (Streptococcus pneumoniae (R6), read-out: MIC S. pn.), 1.6 to 3.1 µg/mL. For the same compound, the MIC in [7] (Streptococcus pneumoniae, S. pneumoniae R6, Drug Susceptible, read-out: MIC R6) is 3.1 µg/mL; in [8] it was 12.5 to 25 µg/mL; in test [9], 3.1 to 6.3 µg/mL; in [10], 100 to 200 µg/mL; in [11], 50 µg/mL; in [12] (ATCC25416, read-out: MIC B.c., Burkholderia cepacia (ATCC 25416)) it was above 200 µg/mL. The MIC was above 200 µg/mL in test [12] (ATCC25416, read-out: MIC B.c., Burkholderia cepacia, Table 6); 12.5 µg/mL in test [13]; 6.3 µg/mL in [14]; 1.6 to 3.1 µg/mL in test [16]; 25 to 50 µg/mL in test [17]; 12.5 to 25 µg/mL in test [18]. Also, the MIC is 1.6 to 3.1 µg/mL in test [19]; 12.5 to 25 µg/mL in test [21]; 200 µg/mL in test [22]; 12.5 to 25 µg/mL in test [23]; 100 to 200 µg/mL in [24]; 6.3 µg/mL in [25] (BAA1407, S. pneumoniae BAA-1407, Macrolide Resistant, read-out: MIC BAA-1407). Moreover, the MIC in test [25] (S. pneumoniae A66.1x, Drug Susceptible, read-out: MIC A66.1x) stood at 1.6 µg/mL; in test [25] (S. pneumoniae BHN97x, Drug Susceptible, read-out: MIC BHN97x), 3.1 µg/mL; in test [25] (S. pneumoniae D39X, Drug Susceptible, read-out: MIC D39X) it was 1.6 µg/mL; in test [25] (S. pneumoniae Daw7, PenG Resistant, read-out: MIC Daw7), 6.3 µg/mL; in test [25] (S. pneumoniae Daw8, PenG Resistant, read-out: MIC Daw8), 3.1 µg/mL; in test [25] (S. pneumoniae Daw9, PenG Resistant, read-out: MIC Daw9), 3.1 µg/mL. For the same compound, the MIC in test [25] (S. pneumoniae Daw62, PenG Resistant, read-out: MIC Daw62) was 6.3 µg/mL; in [25] (S. pneumoniae Daw64, PenG Resistant, read-out: MIC Daw64), 6.3 µg/mL; in test [25] (S. pneumoniae OVA6, Macrolide Resistant, read-out: MIC OVA6), 6.3 µg/mL; in test [25] (S. pneumoniae T4X, Drug Susceptible, read-out: MIC T4X) it was 3.1 µg/mL; in test [28], 12.5 to 25 µg/mL; in test [29] it was 100 to 200 µg/mL. The zone of inhibition at 4 µg/disc was 15 to 17 mm in test [15], 16 mm in test [20], 28 to 40 mm in test [26] and 18 mm in [27].
In the case of `CN[C@@H]1[C@H](O)[C@H](NC)[C@H]2O[C@@]3(O)C(=O)C[C@@H](C)O[C@H]3O[C@@H]2[C@H]1O` [spectinomycin], in test [1], the “susceptibility of mutants resistant to 2” value is recorded as “cross resistance”. The “bioluminescent images of mice” value in [30] is listed as “systemic bacterial infection”.
